The values that follow come from ChEMBL document CHEMBL3132769, “Fragment growing to retain or alter the selectivity of anchored kinase hinge-binding fragments” (Medchemcomm, 2014).

Each structure is given as a SMILES string.

The term inhibition denotes the drop in the measured response relative to a control, in per cent.

In assay [1] the target is T1, Aurora kinase A (Homo sapiens) (UniProt O14965).
T1 sequence (whole entry): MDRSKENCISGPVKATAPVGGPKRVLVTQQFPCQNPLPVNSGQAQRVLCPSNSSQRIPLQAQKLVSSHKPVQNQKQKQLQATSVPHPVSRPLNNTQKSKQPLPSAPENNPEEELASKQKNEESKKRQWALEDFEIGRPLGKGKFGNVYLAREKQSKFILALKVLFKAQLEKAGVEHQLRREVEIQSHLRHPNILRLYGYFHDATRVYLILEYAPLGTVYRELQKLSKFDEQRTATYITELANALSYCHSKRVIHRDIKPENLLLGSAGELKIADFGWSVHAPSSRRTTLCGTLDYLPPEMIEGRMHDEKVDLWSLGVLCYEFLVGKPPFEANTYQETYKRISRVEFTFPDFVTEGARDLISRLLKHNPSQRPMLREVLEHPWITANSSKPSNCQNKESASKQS
Description: Inhibition of human full length AurA expressed in baculovirus assessed as substrate phosphorylation using fluorescence-labelled peptides as substrate at 8 uM after 90 mins by microfluidic peptide phosphorylation assay.

In assay [2] the target is Fibroblast growth factor receptor 2 (Homo sapiens) (UniProt P21802). Put plainly: Inhibition of human FGFR2 catalytic domain expressed in baculovirus assessed as substrate phosphorylation using fluorescence-labelled peptides as substrate at 420 uM after 90 mins by microfluidic peptide phosphorylation assay.
Assay [3] deals with Hepatocyte growth factor receptor (Homo sapiens) (UniProt P08581). Description: Inhibition of human MET cytoplasmic domain expressed in baculovirus assessed as substrate phosphorylation using fluorescence-labelled peptides as substrate at 420 uM after 90 mins by microfluidic peptide phosphorylation assay.
Assay [4] concerns the target Tyrosine-protein kinase BTK (Homo sapiens) (UniProt Q06187). Conditions: 0.1 uM.
Description: Inhibition of human full length BTK expressed in baculovirus assessed as substrate phosphorylation using fluorescence-labelled peptides as substrate at 0.1 uM after 90 mins by microfluidic peptide phosphorylation assay
Assay [5] deals with Aurora kinase B (Homo sapiens) (UniProt Q96GD4). Conditions: 0.1 uM.
Description: Inhibition of human full length AurB expressed in baculovirus assessed as substrate phosphorylation using fluorescence-labelled peptides as substrate at 0.1 uM after 90 mins by microfluidic peptide phosphorylation assay
Assay [6] has as its target Tyrosine-protein kinase ABL1 (Homo sapiens) (UniProt P00519). Description: Inhibition of human full-length ABL expressed in baculovirus assessed as substrate phosphorylation using fluorescence-labelled peptides as substrate at 0.2 uM after 90 mins by microfluidic peptide phosphorylation assay.
The target of assay [7] is Ribosomal protein S6 kinase alpha-4 (Homo sapiens) (UniProt O75676). Put plainly: Inhibition of human full length MSK2 expressed in baculovirus assessed as substrate phosphorylation using fluorescence-labelled peptides as substrate at 0.2 uM after 90 mins by microfluidic peptide phosphorylation assay.
Assay [8] has as its target MAP kinase-activated protein kinase 3 (Homo sapiens) (UniProt Q16644). Put plainly: Inhibition of human full length MAPKAPK3 expressed in Escherichia coli cell assessed as substrate phosphorylation using fluorescence-labelled peptides as substrate at 0.2 uM after 90 mins by microfluidic peptide phosphorylation assay.
In assay [9] the target is T2, Mitogen-activated protein kinase 12 (Homo sapiens) (UniProt P53778).
T2 sequence (whole entry): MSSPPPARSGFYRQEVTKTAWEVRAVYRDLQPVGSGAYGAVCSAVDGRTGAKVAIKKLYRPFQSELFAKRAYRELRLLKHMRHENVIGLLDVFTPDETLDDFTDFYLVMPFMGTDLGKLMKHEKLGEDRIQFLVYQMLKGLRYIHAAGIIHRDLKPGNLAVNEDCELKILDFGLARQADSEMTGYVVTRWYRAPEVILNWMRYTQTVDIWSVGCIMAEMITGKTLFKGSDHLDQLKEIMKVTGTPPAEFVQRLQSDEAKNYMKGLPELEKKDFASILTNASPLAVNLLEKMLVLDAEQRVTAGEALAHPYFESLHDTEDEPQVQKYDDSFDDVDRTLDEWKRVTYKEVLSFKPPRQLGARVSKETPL
Description: Inhibition of human full length p38 gamma expressed in Escherichia coli cell assessed as substrate phosphorylation using fluorescence-labelled peptides as substrate at 9 uM after 90 mins by microfluidic peptide phosphorylation assay.

The target in assay [10] is Mitogen-activated protein kinase 14 (Homo sapiens) (UniProt Q16539). Description: Inhibition of human truncated p38 alpha expressed in Escherichia coli cell assessed as substrate phosphorylation using fluorescence-labelled peptides as substrate at 9 uM after 90 mins by microfluidic peptide phosphorylation assay.
In assay [11] the target is T3, Serine/threonine-protein kinase Sgk3 (Homo sapiens) (UniProt Q96BR1).
T3 sequence (whole entry): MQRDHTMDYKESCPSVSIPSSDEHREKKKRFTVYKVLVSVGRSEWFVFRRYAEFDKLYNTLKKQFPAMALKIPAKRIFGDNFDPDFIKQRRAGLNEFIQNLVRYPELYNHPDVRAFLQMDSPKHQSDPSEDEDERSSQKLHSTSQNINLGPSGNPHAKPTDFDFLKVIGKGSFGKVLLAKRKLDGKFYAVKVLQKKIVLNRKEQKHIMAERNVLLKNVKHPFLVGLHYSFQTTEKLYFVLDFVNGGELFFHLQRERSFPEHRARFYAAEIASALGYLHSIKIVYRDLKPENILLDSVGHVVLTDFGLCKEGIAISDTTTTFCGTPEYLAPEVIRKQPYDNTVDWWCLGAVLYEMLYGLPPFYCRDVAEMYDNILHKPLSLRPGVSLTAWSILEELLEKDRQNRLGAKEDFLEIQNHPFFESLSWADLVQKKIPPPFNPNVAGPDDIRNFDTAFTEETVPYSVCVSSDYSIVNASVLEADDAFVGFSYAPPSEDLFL
Description: Inhibition of human full length SGK3 expressed in baculovirus assessed as substrate phosphorylation using fluorescence-labelled peptides as substrate at 70 uM after 90 mins by microfluidic peptide phosphorylation assay.

The target in assay [12] is Epidermal growth factor receptor (Homo sapiens) (UniProt P00533). Description: Inhibition of human EGFR catalytic domain expressed in baculovirus assessed as substrate phosphorylation using fluorescence-labelled peptides as substrate at 70 uM after 90 mins by microfluidic peptide phosphorylation assay.
The target of assay [13] is Serine/threonine-protein kinase Chk2 (Homo sapiens) (UniProt O96017). Put plainly: Inhibition of human full length CHK2 expressed in baculovirus assessed as substrate phosphorylation using fluorescence-labelled peptides as substrate at 95 uM after 90 mins by microfluidic peptide phosphorylation assay.
For assay [14], the target named is Tyrosine-protein kinase Fyn (Homo sapiens) (UniProt P06241). Description: Inhibition of human full length FYN expressed in baculovirus assessed as substrate phosphorylation using fluorescence-labelled peptides as substrate at 95 uM after 90 mins by microfluidic peptide phosphorylation assay.
For assay [15], the target named is Casein kinase I isoform alpha (Homo sapiens) (UniProt P48729). Put plainly: Inhibition of human full length CSNK1A1 expressed in baculovirus assessed as substrate phosphorylation using fluorescence-labelled peptides as substrate at 1000 uM after 90 mins by microfluidic peptide phosphorylation assay.
Chain of Casein kinase I isoform alpha (Homo sapiens) (P48729 2-337 limits assumed): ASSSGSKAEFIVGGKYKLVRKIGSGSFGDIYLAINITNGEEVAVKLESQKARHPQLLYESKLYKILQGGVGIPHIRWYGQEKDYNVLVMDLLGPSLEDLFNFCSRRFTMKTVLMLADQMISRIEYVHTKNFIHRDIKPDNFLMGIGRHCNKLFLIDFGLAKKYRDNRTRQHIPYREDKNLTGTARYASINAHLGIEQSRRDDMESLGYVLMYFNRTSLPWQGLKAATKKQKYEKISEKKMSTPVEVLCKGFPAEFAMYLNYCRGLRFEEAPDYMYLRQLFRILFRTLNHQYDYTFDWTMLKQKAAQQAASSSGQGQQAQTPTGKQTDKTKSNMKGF

Chain of Tyrosine-protein kinase ABL1 (Homo sapiens) (P00519 whole entry): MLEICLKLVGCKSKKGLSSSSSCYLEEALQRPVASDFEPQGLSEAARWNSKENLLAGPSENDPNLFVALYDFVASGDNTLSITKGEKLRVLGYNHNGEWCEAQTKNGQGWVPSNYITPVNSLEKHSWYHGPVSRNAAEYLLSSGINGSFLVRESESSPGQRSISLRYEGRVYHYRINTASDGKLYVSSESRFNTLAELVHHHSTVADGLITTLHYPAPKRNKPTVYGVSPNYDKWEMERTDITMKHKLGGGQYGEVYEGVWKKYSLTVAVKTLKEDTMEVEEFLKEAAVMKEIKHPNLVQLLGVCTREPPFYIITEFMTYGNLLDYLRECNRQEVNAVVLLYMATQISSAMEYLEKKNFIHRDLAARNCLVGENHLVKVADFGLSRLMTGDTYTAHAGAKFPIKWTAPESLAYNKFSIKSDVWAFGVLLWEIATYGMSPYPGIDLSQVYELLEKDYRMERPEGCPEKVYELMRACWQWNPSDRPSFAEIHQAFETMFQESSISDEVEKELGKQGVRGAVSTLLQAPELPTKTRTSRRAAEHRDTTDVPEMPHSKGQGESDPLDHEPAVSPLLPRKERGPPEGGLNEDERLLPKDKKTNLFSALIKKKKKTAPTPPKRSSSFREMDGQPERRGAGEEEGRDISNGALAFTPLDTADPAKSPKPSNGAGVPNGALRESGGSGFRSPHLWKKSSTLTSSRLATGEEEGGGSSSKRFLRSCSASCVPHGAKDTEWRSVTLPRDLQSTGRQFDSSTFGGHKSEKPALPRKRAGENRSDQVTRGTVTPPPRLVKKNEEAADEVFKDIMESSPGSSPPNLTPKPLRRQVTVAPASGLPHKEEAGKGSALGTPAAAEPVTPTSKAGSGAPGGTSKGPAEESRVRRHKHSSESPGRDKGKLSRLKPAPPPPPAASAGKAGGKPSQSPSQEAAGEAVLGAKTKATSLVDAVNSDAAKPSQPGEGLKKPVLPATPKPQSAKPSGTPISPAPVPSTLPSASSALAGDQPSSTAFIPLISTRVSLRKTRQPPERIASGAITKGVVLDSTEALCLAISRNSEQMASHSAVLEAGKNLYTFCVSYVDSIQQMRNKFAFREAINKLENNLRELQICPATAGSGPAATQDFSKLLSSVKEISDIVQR
Chain of Ribosomal protein S6 kinase alpha-4 (Homo sapiens) (O75676 whole entry, looked up): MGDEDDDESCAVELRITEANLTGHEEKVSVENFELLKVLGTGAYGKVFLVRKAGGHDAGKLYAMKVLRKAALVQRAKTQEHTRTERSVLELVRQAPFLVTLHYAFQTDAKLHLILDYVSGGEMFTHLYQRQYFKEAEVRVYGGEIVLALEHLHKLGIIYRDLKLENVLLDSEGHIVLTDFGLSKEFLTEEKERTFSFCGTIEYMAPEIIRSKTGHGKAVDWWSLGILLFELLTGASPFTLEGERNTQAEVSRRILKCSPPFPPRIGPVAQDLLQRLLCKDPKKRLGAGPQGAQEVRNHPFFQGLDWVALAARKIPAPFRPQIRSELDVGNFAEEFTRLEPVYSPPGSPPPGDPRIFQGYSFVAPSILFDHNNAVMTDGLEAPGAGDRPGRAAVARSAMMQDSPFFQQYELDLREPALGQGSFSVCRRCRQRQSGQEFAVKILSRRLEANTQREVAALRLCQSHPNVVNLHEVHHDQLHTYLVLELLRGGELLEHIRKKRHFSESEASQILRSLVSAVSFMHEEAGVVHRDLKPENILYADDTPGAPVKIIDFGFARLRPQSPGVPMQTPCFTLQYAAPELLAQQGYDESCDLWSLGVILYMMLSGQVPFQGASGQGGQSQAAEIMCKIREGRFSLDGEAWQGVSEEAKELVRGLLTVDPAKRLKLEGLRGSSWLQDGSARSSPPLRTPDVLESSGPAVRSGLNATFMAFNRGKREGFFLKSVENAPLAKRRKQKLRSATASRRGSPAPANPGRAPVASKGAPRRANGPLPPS
Chain of Aurora kinase B (Homo sapiens) (Q96GD4 whole entry): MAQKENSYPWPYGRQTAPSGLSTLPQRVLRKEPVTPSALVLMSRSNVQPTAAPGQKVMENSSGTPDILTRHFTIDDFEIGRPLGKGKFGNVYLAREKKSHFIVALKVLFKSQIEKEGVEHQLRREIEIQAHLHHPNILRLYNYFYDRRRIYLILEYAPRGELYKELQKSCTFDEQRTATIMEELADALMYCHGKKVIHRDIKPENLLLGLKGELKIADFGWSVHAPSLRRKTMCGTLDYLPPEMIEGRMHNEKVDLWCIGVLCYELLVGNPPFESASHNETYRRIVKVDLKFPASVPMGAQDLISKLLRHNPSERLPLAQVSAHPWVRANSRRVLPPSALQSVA
Chain of MAP kinase-activated protein kinase 3 (Homo sapiens) (Q16644 whole entry, looked up): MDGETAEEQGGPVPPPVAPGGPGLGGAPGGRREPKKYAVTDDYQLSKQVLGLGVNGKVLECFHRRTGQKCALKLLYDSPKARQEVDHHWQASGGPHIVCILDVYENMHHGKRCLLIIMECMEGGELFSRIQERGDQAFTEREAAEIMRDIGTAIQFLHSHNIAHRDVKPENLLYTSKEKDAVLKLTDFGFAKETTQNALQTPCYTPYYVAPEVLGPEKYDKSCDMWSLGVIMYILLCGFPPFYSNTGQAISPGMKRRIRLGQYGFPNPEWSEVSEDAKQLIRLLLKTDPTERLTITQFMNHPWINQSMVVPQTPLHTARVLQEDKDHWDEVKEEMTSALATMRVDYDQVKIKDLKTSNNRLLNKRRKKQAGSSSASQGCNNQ
Chain of Epidermal growth factor receptor (Homo sapiens) (P00533 whole entry, the tested form may be a part): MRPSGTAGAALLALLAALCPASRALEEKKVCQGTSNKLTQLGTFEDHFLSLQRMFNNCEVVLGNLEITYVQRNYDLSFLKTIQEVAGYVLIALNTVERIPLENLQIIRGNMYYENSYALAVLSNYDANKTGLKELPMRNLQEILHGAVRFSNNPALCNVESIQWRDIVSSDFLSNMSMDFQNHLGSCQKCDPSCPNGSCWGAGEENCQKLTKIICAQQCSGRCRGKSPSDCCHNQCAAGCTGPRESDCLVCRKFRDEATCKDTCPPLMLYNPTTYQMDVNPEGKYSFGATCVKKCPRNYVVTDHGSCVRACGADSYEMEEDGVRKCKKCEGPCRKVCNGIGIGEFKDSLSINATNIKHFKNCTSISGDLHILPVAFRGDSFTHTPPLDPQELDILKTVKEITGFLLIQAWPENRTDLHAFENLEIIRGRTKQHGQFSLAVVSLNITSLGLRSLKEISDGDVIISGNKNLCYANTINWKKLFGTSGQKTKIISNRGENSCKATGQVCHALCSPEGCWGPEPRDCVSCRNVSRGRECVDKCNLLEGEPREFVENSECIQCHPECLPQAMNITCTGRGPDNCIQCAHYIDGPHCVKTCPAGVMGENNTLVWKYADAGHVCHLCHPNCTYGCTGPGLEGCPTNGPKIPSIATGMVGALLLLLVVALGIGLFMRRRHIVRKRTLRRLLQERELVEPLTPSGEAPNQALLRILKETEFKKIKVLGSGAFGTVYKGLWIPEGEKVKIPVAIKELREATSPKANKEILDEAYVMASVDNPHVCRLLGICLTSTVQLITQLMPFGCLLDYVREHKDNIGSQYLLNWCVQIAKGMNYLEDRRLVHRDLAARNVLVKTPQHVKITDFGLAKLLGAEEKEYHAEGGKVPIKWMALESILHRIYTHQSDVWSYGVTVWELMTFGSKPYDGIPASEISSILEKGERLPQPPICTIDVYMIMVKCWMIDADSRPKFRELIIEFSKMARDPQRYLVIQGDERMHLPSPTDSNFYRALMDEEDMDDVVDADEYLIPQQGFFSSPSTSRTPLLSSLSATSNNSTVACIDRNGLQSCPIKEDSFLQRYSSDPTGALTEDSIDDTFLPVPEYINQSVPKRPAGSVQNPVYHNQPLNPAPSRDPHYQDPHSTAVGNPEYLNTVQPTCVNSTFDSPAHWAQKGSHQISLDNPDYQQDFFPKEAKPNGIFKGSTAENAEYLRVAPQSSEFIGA
Chain of Mitogen-activated protein kinase 14 (Homo sapiens) (Q16539 whole entry, the tested form may be a part): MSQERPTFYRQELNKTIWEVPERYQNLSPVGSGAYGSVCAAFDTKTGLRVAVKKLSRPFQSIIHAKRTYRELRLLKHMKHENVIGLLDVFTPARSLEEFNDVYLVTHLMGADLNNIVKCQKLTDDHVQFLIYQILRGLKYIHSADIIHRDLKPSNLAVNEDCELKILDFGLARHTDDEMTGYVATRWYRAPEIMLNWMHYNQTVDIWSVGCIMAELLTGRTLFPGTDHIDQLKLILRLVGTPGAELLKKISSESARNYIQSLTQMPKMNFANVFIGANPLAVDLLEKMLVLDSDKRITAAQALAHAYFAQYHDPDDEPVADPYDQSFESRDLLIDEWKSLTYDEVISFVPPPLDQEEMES

Turning to `NCC1CCN(c2ncnc3[nH]ccc23)CC1`, the inhibition in assay [1] turned out to be 87.5%.

`c1nc(N2CCOCC2)c2nc[nH]c2n1`: the inhibition in [2] was determined as 93%; in assay [3] it was 23%.

For `C[C@H](CN(C)C)Oc1nc(Nc2cc3cccc(Cl)c3cn2)cnc1C#N`, the inhibition in [4] and in assay [5] was 0% throughout.

Turning to `Clc1ccc(C2(c3ccc(-c4ncnc5[nH]cnc45)cc3)CCNCC2)cc1`, the inhibition is 0% in assay [6], 82.5% in assay [7] and 4% in assay [8].

As for `NCC1CN(c2ncnc3[nH]c4cnccc4c23)CCO1` (stereo not given), the inhibition turned out to be 4.5% in [9] and 2.5% in assay [10].

Regarding `CNCc1ccc(-c2ncnc3[nH]cnc23)cc1`, the figures for the inhibition in [11] and in assay [12] were 58% and 16.5%, respectively.

For `NCCc1ccc(-c2ncnc3[nH]cnc23)cc1`, the inhibition in assay [13] is 74%; in [14], 64.5%.

With `c1cnc2[nH]ccc2c1`, the inhibition in assay [15] came to 73.5%.
